This note sets out measurements from patent US20220002279A1, “NOVEL IMIDAZOLE DERIVATIVE” (priority 2018, published 2022).

What is called MIC is the smallest concentration in the dilution series that meets the test's criterion for growth inhibition.

SMILES strings stand for the structures. Converted amounts (≈) assume the structure as drawn.

What all share (assay): Antimicrobial activity, MIC by broth microdilution
Common to all, as to format: cell-based

The test system of assay [1] is Klebsiella pneumoniae strain ATCC13883. The settings on record: ATCC13883, cation-adjusted Mueller-Hinton broth, about 5×10^5 CFU/mL, 35° C., about 18 hours, read-out: MIC Klebsiella pneumoniae ATCC13883. The text has this:
(§1) Test Example 4 Evaluation of the Antimicrobial Activity
(§2) For minimum inhibitory concentration (MIC) measurement, the following broth microdilution method was applied as adapted from the standard procedure recommended by the CLSI (Clinical and Laboratory Standards Institute).
(§3) The bacteria used were Pseudomonas aeruginosa strain ATCC27853, Escherichia coli strain ATCC25922, and Klebsiella pneumoniae strain ATCC13883. After culture overnight on a heart infusion agar medium, the cells of a test bacterium were scraped off, and a bacterial solution suspended to have a turbidity of level 0.5 on the McFarland scale was diluted and used as an inoculum solution. The inoculum solution was inoculated in a cation-adjusted Mueller-Hinton broth medium containing a test compound so that the final inoculation concentration was about 5×10^5 CFU/mL, and cultured at 35° C. for about 18 hours. A minimum drug concentration at which no cell growth was visible to the naked eye was designated as MIC. […] In the table, ND represents the case where suppression of the cell growth in a drug concentration-dependent manner was not observed (Not Determined), and NT represents that no test was conducted (Not Tested).

Assay [2] relates to Pseudomonas aeruginosa strain ATCC27853. The settings on record: ATCC27853, 18 h, cation-adjusted Mueller-Hinton broth, about 5×10^5 CFU/mL, 35° C., about 18 hours, read-out: MIC Pseudomonas aeruginosa ATCC27853.
Excerpt: as §1, §2, §3

Assay [3] deals with Escherichia coli strain ATCC25922. The settings on record: ATCC25922, 18 h, cation-adjusted Mueller-Hinton broth, about 5×10^5 CFU/mL, 35° C., about 18 hours, read-out: MIC Escherichia coli ATCC25922.
Excerpt: as §1, §2, §3

As for `C[C@H](O)c1nccn1[C@H](CN)c1cc(-c2ccc(C#C[C@@H]3[C@H]4CN(C[C@@H](C)O)C[C@@H]34)cc2)on1` [Compound 137, (R)-1-((1R,5S,6R)-6-((4-(3-((R)-2-amino-1-(2-((S)-1-hydroxyethyl)-1H-imidazol-1-yl)ethyl)isoxazol-5-yl)phenyl)ethynyl)-3-azabicyclo[3.1.0]hexan-3-yl)propan-2-ol], the MIC in assay [1] and in assay [2] was 4 µg/mL (≈ 8.67 µM) throughout.

`C[C@H](O)c1nccn1[C@H](CN)c1cc(-c2ccc(C#CC3CC(NC4CC4)C3)cc2)on1` (stereo partly drawn) [Compound 129, (1S)-1-(1-{(1R)-2-amino-1-[5-(4-{[3-(cyclopropylamino)cyclobutyl]ethynyl}phenyl)-1,2-oxazol-3-yl]ethyl}-1H-imidazol-2-yl)ethan-1-ol]: the MIC in assay [3] was found to be 1 µg/mL (≈ 2.32 µM); in assay [1], 2 µg/mL (≈ 4.63 µM); in assay [2], 8 µg/mL (≈ 18.5 µM).

On to `C[C@H](O)c1nccn1[C@H](CN)c1cc(-c2ccc(C#C[C@@H]3[C@H]4CN(C(=O)C(N)=O)C[C@@H]34)cc2)on1` [Compound 124, 2-{(1R,5S,6s)-6-[(4-{3-[(1R)-2-amino-1-{2-[(1S)-1-hydroxyethyl]-1H-imidazol-1-yl}ethyl]-1,2-oxazol-5-yl}phenyl)ethynyl]-3-azabicyclo[3.1.0]hexan-3-yl}-2-oxoacetamide], for which the minimal inhibitory concentration (MIC) is 2 µg/mL (≈ 4.21 µM) in assay [3], 4 µg/mL (≈ 8.43 µM) in assay [1] and 2 µg/mL (≈ 4.21 µM) in assay [2].

In the case of `C[C@H](O)c1nccn1[C@H](CN)c1cc(-c2ccc(C#C[C@@H]3[C@H]4CN(C=O)C[C@@H]34)cc2)on1` [Compound 117, (1R,5S,6s)-6-[(4-{3-[(1R)-2-amino-1-{2-[(1S)-1-hydroxyethyl]-1H-imidazol-1-yl}ethyl]-1,2-oxazol-5-yl}phenyl)ethynyl]-3-azabicyclo[3.1.0]hexane-3-carbaldehyde], the MIC in assay [3] was found to be 1 µg/mL (≈ 2.32 µM); in assay [1], 2 µg/mL (≈ 4.64 µM); in assay [2], 8 µg/mL (≈ 18.5 µM).

As for `C[C@H](O)c1nccn1[C@H](CN)c1cc(-c2ccc(C#C[C@H]3C[C@H](NC=O)C3)cc2)on1` [Compound 106, N-{trans-3-[(4-{3-[(1R)-2-amino-1-(2-[(1S)-1-hydroxyethyl]-1H-imidazol-1-yl}ethyl]-1,2-oxazol-5-yl}phenyl)ethynyl]cyclobutyl}formamide], the MIC in assay [3] amounted to 2 µg/mL (≈ 4.77 µM); in assay [1], 4 µg/mL (≈ 9.54 µM); in assay [2] it was 8 µg/mL (≈ 19.1 µM).

With `C[C@H](O)c1nccn1[C@H](CN)c1cc(-c2ccc(C#C[C@H]3C[C@H](NC4COC4)C3)cc2)on1` [Compound 133, (1S)-1-{1-[(1R)-2-amino-1-{5-[4-({trans-3-[(oxetan-3-yl)amino]cyclobutyl}ethynyl)phenyl]-1,2-oxazol-3-yl}ethyl]-1H-imidazol-2-yl} ethan-1-ol], the figures for the MIC in assay [3], in assay [1] and in assay [2] were 1 µg/mL (≈ 2.23 µM), 4 µg/mL (≈ 8.94 µM) and 8 µg/mL (≈ 17.9 µM), respectively.

Regarding `C[C@H](O)c1nccn1Cc1cc(-c2ccc(C#C[C@H]3C[C@H](O)C3)cc2)on1` [Compound 54, trans-3-({4-[3-({2-[(1S)-1-Hydroxyethyl]-1H-imidazol-1-yl}methyl)-1,2-oxazol-5-yl]phenyl}ethynyl)cyclobutan-1-ol], the MIC in assay [3] was 0.12 µg/mL (≈ 0.33 µM); in assay [1], 0.25 µg/mL (≈ 0.688 µM); in assay [2], 16 µg/mL (≈ 44 µM).

Consider `C[C@H](O)CN1C[C@@H]2[C@@H](C#Cc3ccc(-c4cc([C@@H](CN)n5ccnc5[C@H](C)O)no4)cc3)[C@@H]2C1` [Compound 136, (S)-1-((1R,5S,6R)-6-((4-(3-((R)-2-amino-1-(2-((S)-1-hydroxyethyl)-1H-imidazol-1-yl)ethyl)isoxazol-5-yl)phenyl)ethynyl)-3-azabicyclo[3.1.0]hexan-3-yl)propan-2-ol], for which the MIC was 1 µg/mL (≈ 2.17 µM) in assay [3], 4 µg/mL (≈ 8.67 µM) in assay [1] and 2 µg/mL (≈ 4.33 µM) in assay [2].

Consider `C[C@H](O)c1nccn1[C@H](CN)c1cc(-c2ccc(C#C[C@H]3C[C@@](O)(CO)C3)cc2)on1` [Compound 89, trans-3-[(4-(3-[(1R)-2-Amino-1-{2-[(1S)-1-hydroxyethyl]-1H-imidazol-1-yl}ethyl]-1,2-oxazol-5-yl}phenyl)ethynyl]-1-(hydroxymethyl)cyclobutan-1-ol], for which the figures for the MIC in assay [3], in assay [1] and in assay [2] were 2 µg/mL (≈ 4.73 µM), 8 µg/mL (≈ 18.9 µM) and 4 µg/mL (≈ 9.47 µM), respectively.

With `COC(=O)N1C[C@@H]2[C@@H](C#Cc3ccc(-c4cc([C@@H](CN)n5ccnc5[C@H](C)O)no4)cc3)[C@@H]2C1` [Compound 118, methyl (1R,5S,6s)-6-[(4-{3-[(1R)-2-amino-1-{2-[(1S)-1-hydroxyethyl]-1H-imidazol-1-yl}ethyl]-1,2-oxazol-5-yl}phenyl)ethynyl]-3-azabicyclo[3.1.0]hexane-3-carboxylate], the values for the MIC in assay [3], in assay [1] and in assay [2] were 0.25 µg/mL (≈ 0.542 µM), 0.5 µg/mL (≈ 1.08 µM) and 4 µg/mL (≈ 8.67 µM), respectively.

In the case of `C[C@H](O)c1nccn1[C@H](CN)c1cc(-c2ccc(C#CC3C4COCC34)cc2)on1` (stereo partly drawn) [Compound 58, (1S)-1-{1-[(1R)-2-amino-1-(5-{4-[(3-oxabicyclo[3.1.0]hexan-6-yl)ethynyl]phenyl}-1,2-oxazol-3-yl)ethyl]-1H-imidazol-2-yl} ethan-1-ol], the MIC in assay [2] worked out at 8 µg/mL (≈ 19.8 µM).

Take `CC(=O)N1C[C@@H]2[C@@H](C#Cc3ccc(-c4cc([C@@H](CN)n5ccnc5[C@H](C)O)no4)cc3)[C@@H]2C1` [Compound 91, 1-{(1R,5S,6s)-6-[(4-{3-[(1R)-2-Amino-1-{2-[(1S)-1-hydroxyethyl]-1H-imidazol-1-yl}ethyl]-1,2-oxazol-5-yl}phenyl)ethynyl]-3-azabicyclo[3.1.0]hexan-3-yl}ethan-1-one]: the MIC is 8 µg/mL (≈ 18 µM) in assay [1] and 32 µg/mL (≈ 71.8 µM) in assay [2].

Consider `C[C@H](O)c1nccn1[C@H](CN)c1cc(-c2ccc(C#C[C@H]3C[C@H](O)C3)cc2)no1` [Compound 100, trans-3-[(4-{5-[(1R)-2-amino-1-{2-[(1S)-1-hydroxyethyl]-1H-imidazol-1-yl}ethyl]-1,2-oxazol-3-yl}phenyl)ethynyl]cyclobutan-1-ol], for which the MIC in assay [1] amounted to 4 µg/mL (≈ 10.2 µM).

On to `C[C@H](O)c1nccn1[C@H](CN)c1cc(-c2ccc(C#CC3CC(C(=O)O)C3)cc2)on1` (stereo partly drawn) [Compound 130, 3-[(4-{3-{(1R)-2-amino-1-(2-[(1S)-1-hydroxyethyl]-1H-imidazol-1-yl}ethyl]-1,2-oxazol-5-yl}phenyl)ethynyl]cyclobutane-1-carboxylate], for which the MIC was 32 µg/mL (≈ 76.1 µM) in assay [1] and 8 µg/mL (≈ 19 µM) in assay [2].

As for `C[C@H](O)c1nccn1[C@H](CN)c1cc(-c2ccc(C#C[C@H]3C[C@H](NCCO)C3)cc2)on1` [Compound 134, (1S)-1-{1-[(1R)-2-amino-1-{5-[4-({trans-3-[(2-hydroxyethyl)amino]cyclobutyl}ethynyl)phenyl]-1,2-oxazol-3-yl}ethyl]-1H-imidazol-2-yl}ethan-1-ol], the results for the MIC in assay [1] and in assay [2] were 32 µg/mL (≈ 73.5 µM) and 4 µg/mL (≈ 9.18 µM), respectively.

For `CNC[C@H](c1cc(-c2ccc(C#C[C@@H]3[C@H]4CN(CCO)C[C@@H]34)cc2)on1)n1ccnc1[C@H](C)O` [Compound 38, (1S)-1-{1-[(1R)-1-[5-(4-{[(1R,5S,6s)-3-(2-Hydroxyethyl)-3-azabicyclo[3.1.0]hexan-6-yl]ethynyl}phenyl)-1,2-oxazol-3-yl]-2-(methylamino)ethyl]-1H-imidazol-2-yl}ethan-1-ol], the figures for the MIC in assay [3] and in assay [2] were 2 µg/mL (≈ 4.33 µM) and 4 µg/mL (≈ 8.67 µM), respectively.
